Assay results published in PubChem BioAssay (NCI).
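48-hour exposure; five concentrations; linearly interpolated endpoints. GI50 is the concentration that inhibits growth by half. TGI: concentration producing complete growth inhibition.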

Columns and labels:
Assay in all cases: NCI tumour cell line growth inhibition, 48 h
OVCAR-8 ovarian = system: OVCAR-8 ovarian
SK-MEL-2 melanoma = system: SK-MEL-2 melanoma
SNB-19 CNS = system: SNB-19 CNS
HS 578T breast = system: HS 578T breast
HCC-2998 colon = system: HCC-2998 colon
RXF 393 renal = system: RXF 393 renal
HOP-92 NSCLC = system: HOP-92 NSCLC
CAKI-1 renal = system: CAKI-1 renal
K-562 leukemia = system: K-562 leukemia
RPMI-8226 leukemia = system: RPMI-8226 leukemia

Row | SMILES | GI50 (OVCAR-8 ovarian) [µM] | TGI (OVCAR-8 ovarian) [µM] | GI50 (SK-MEL-2 melanoma) [µM] | TGI (SK-MEL-2 melanoma) [µM] | GI50 (SNB-19 CNS) [µM] | TGI (SNB-19 CNS) [µM] | GI50 (HS 578T breast) [µM] | TGI (HS 578T breast) [µM] | GI50 (HCC-2998 colon) [µM] | TGI (HCC-2998 colon) [µM] | GI50 (RXF 393 renal) [µM] | TGI (RXF 393 renal) [µM] | GI50 (HOP-92 NSCLC) [µM] | TGI (HOP-92 NSCLC) [µM] | GI50 (CAKI-1 renal) [µM] | TGI (CAKI-1 renal) [µM] | GI50 (K-562 leukemia) [µM] | TGI (K-562 leukemia) [µM] | GI50 (RPMI-8226 leukemia) [µM] | TGI (RPMI-8226 leukemia) [µM]
1 | O=C(O)c1ccccc1Nc1ccc2nnc(-c3ccncc3)n2n1 | 8.1 | 41.7 | 3.15 | 9.08 | 14.2 | 40.8 | 18.3 | 53.9 | 23.5 | 52 | 3.18 | 9.98 | 16.9 | 35.8 | 3.22 | 11.7 | 15.1 | > 100 | – | –
2 | O=[N+]([O-])c1cc2c(c([N+](=O)[O-])c1)Nc1ccccc1O2 | 10 | > 100 | 7.48 | 40.3 | 6.33 | > 100 | 7.22 | > 100 | 7.75 | > 100 | 7.35 | 46.3 | – | – | 5.36 | 26.9 | 4.64 | > 100 | 2.96 | 8.2
3 | CC(=O)[O][Bi]([c]1ccccc1)[c]1ccccc1 | 16.4 | 31 | – | – | 12.6 | 26.8 | 24.9 | 71.9 | – | – | 2.45 | 7.14 | 1.33 | 4.28 | 11.1 | 26.2 | 2.75 | 14.5 | 2.59 | 5.99
4 | CCOC(=O)N1C=CC(=C2C(=C3C=CN(C(=O)OCC)C=C3)C(=C3C=CN(C(=O)OCC)C=C3)C2=C2C=CN(C(=O)OCC)C=C2)C=C1 | – | 71.5 | – | > 100 | – | > 100 | – | 85.6 | – | – | – | > 100 | – | 33.9 | – | 50.6 | – | 71.4 | – | –
5 | COc1cc(/C=C2\C[C@H]3[C@@H]4CC=C5C[C@@H](OC(C)=O)CC[C@]5(C)[C@H]4CC[C@]3(C)[C@H]2OC(C)=O)ccc1OCCN1CCCCC1 | 13 | > 50 | 20.1 | > 50 | 46.2 | > 50 | 12.1 | 42.8 | 10.9 | 19.9 | 6.94 | 18.8 | 27.6 | > 50 | 15.6 | > 50 | 12.8 | 43.2 | – | –
6 | Cc1ccc(NC(=O)c2cc3ccccc3cc2O)c(C)c1.Cc1ccc(NC(=O)c2cc3ccccc3cc2[O-])c(C)c1.[Ni+2] | – | – | 1.53 | 3.62 | 3.72 | 20.2 | 2.98 | 9.38 | 2.63 | 6.74 | 1.9 | 6.37 | – | – | 3.08 | 13.1 | 3.7 | 12.9 | 1.94 | 6.1
